Measured values: US12122778B2, “Activating pyruvate kinase R” (Novo Nordisk Health Care AG, priority 2018, dated 2024)

Legend:
PKR(G332S) = PKR(G332S) (Homo sapiens, UniProt P30613, G332S); assay: Luminescence Biochemical Assay (Kinase Glo Plus), PKR G332S mutant; details: with FBP; for activation at 1.54 µM: 1.54 μM compound, read-out: AC50 LUM KGP FBP % Fold@1.54 μM mean; for AC50: read-out: AC50 LUM KGP FBP AC50 μM gmean (column A); for Emax: read-out: AC50 LUM KGP FBP MAX % FOLD mean
PKR(R510Q) = PKR(R510Q) (Homo sapiens, UniProt P30613, R510Q); assay: Luminescence Biochemical Assay (Kinase Glo Plus), PKR R510Q mutant; details: without FBP; for activation at 1.54 µM: 1.54 μM compound, read-out: AC50 LUM KGP woFBP % Fold@1.54 μM mean; for AC50: read-out: AC50 LUM KGP woFBP AC50 μM gmean; for Emax: read-out: AC50 LUM KGP woFBP MAX % FOLD mean
PKR(wt) = PKR(wt) (Homo sapiens, UniProt P30613); assay: Luminescence Biochemical Assay (Kinase Glo Plus), wild type PKR; details: without FBP; for activation at 1.54 µM: 1.54 μM compound, read-out: AC50 LUM KGP woFBP % Fold@1.54 μM mean; for AC50: read-out: AC50 LUM KGP woFBP AC50 μM gmean; for Emax: read-out: AC50 LUM KGP woFBP MAX % FOLD mean
Sequence of PKR(wt) (P30613 whole entry): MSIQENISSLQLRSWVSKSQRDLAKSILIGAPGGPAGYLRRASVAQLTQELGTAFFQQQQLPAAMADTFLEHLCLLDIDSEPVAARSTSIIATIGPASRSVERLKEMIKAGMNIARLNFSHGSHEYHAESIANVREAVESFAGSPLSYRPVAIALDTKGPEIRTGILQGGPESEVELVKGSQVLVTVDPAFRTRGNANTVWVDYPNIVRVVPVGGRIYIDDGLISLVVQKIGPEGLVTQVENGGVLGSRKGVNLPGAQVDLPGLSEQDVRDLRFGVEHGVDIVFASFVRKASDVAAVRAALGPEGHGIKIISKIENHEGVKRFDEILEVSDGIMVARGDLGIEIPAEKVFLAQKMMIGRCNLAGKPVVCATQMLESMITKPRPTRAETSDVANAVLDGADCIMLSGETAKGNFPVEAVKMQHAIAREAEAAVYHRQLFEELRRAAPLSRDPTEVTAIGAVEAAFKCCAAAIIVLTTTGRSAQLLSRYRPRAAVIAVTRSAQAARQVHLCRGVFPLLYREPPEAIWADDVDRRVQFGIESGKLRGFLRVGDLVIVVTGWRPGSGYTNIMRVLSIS

Sequence of PKR(G332S) (P30613 whole entry G332S): as the sequence (P30613 whole entry) above, with G332S counted along it
Sequence of PKR(R510Q) (P30613 whole entry R510Q): as the sequence (P30613 whole entry) above, with R510Q counted along it

Row | Compound | activation at 1.54 µM (PKR(G332S)) | AC50 (PKR(G332S)) | Emax (PKR(G332S)) | activation at 1.54 µM (PKR(R510Q)) | AC50 (PKR(R510Q)) | Emax (PKR(R510Q)) | activation at 1.54 µM (PKR(wt)) | AC50 (PKR(wt)) | Emax (PKR(wt))
1 | O=C(N1CC2=C(C1)CN(S(=O)(=O)c1ccc(OC(F)F)cc1)C2)C(F)(F)c1ccccc1 [Example 18-25, 1-(5-((4-(Difluoromethoxy)phenyl)sulfonyl)-3,4,5,6-tetrahydropyrrolo[3,4-c]pyrrol-2(1H)-yl)-2,2-difluoro-2-phenylethan-1-one] | 75 to 250% | ≤ 0.1 µM | 75 to 250% | 250 to 50000% | ≤ 0.1 µM | 250 to 500% | 250 to 50000% | ≤ 0.1 µM | 250 to 500%
2 | O=C(NCc1ccccc1F)N1CC2=C(C1)CN(S(=O)(=O)c1ccc(C(F)(F)F)nc1)C2 [Example 21-40, N-[(2-fluorophenyl)methyl]-5-{[6-(trifluoromethyl)pyridin-3-yl]sulfonyl}-1H,2H,3H,4H,5H,6H-pyrrolo[3,4-c]pyrrole-2-carboxamide] | 75 to 250% | 1 to 40 µM | 75 to 250% | 75 to 250% | 0.1 to 1 µM | 75 to 250% | 75 to 250% | 0.1 to 1 µM | 75 to 250%
3 | N#Cc1ccccc1S(=O)(=O)N1CC2=C(CN(C(=O)[C@H](O)c3ccccc3)C2)C1 [Example 18-47, 2-({5-[(2R)-2-hydroxy-2-phenylacetyl]-1H,2H,3H,4H,5H,6H-pyrrolo[3,4-c]pyrrol-2-yl}sulfonyl)benzonitrile] | 75 to 250% | 1 to 40 µM | 75 to 250% | 75 to 250% | 0.1 to 1 µM | 75 to 250% | 75 to 250% | 0.1 to 1 µM | 75 to 250%
4 | O=C(N1CC2=C(C1)CN(S(=O)(=O)c1cccc3cccnc13)C2)N1CC(O)(Cc2ccccc2)C1 [Example 12-1, (3-Benzyl-3-hydroxyazetidin-1-yl)(5-(quinolin-8-ylsulfonyl)-4,5-dihydropyrrolo[3,4-c]pyrrol-2(1H,3H,4)-yl)methanone] | 75 to 250% | 1 to 40 µM | 75 to 250% | 75 to 250% | 1 to 40 µM | 75 to 250% | 75 to 250% | 1 to 40 µM | 75 to 250%
5 | O=C([C@H](O)c1ccc2c(c1)NCCO2)N1CC2=C(C1)CN(S(=O)(=O)c1ccc(OC(F)F)cc1)C2 (single isomer, unassigned) [Example 9-4] | 75 to 250% | 0.1 to 1 µM | 75 to 250% | 75 to 250% | 1 to 40 µM | 250 to 500% | 75 to 250% | 1 to 40 µM | 250 to 500%
